Experimental data taken from the METLIN SMRT retention time set (Domingo-Almenara et al. 2019).

Experiment: gradient 5% acetonitrile 3 min, to 50% in 2 min, to 85% in 15 min, held 3 min, 100 µL/min
Conditions: column: Zorbax Extend-C18 2.1 x 50 mm; eluents: water / acetonitrile, 0.1% formic acid
How it was run: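 Retention times of pure standards were taken from adduct peaks that were selected by computer and manually inspected. Over 3 months, mixtures of ~100 molecules were run by HPLC–quadrupole time-of-flight mass spectrometry in positive and negative ionization mode. The Zorbax Extend-C18 column (2.1 × 50 mm, 1.8 μm) ran at 100 μL/min in water and acetonitrile, each containing 0.1% formic acid, with 40 μL dead volume and 900 μL dwell volume.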

SMILES | RP-LC retention time [s]
O=C(CCc1ccccc1)NCCc1c[nH]c2ccc(Cl)cc12 | 895
O=C(Nc1ccc(N2CCOCC2)cc1)c1cn2c(n1)CSCC2 | 600
COc1ccc(CN2CC3(CCN(S(=O)(=O)c4ccccc4Cl)CC3)C2=O)cc1 | 913
O=C(CCCN1C(=O)c2cccc3cccc(c23)C1=O)N1CCN(c2ccccc2)CC1 | 866
Cc1onc(-c2ccccc2Cl)c1C(=O)N1CC2CC1C(=O)O2 (configuration not stated) | 693
Cc1cc(F)ccc1NC(=O)CCNc1cnc2cnccn12 | 578
CC1CCN(c2cc(-n3ccnc3)ncn2)CC1 | 651
O=C(c1ccccn1)N1CCC(n2c(C3CCCC3)nc3cccnc32)C1 (configuration not stated) | 620
COc1cccc(NC(=O)NCCc2nc3cccnc3n2C2CCCC2)c1 | 696
CCc1ccc(NC(=O)N2CCC(n3cnc4ccc(Cl)cc4c3=O)CC2)cc1 | 921
c1ccc(-c2nnc(-c3ccccc3)nn2)cc1 | 1220
CN1C(=O)CCc2cc(NS(=O)(=O)c3ccc(Br)cc3)ccc21 | 810
O=C1COc2ccccc2N1Cc1nc(-c2ccc3c(c2)ncn3C2CCCC2)no1 | 766
CCOC(=O)c1c(C)[nH]c(CCC(=O)Nc2ccc(C(C)=O)cc2)c1C | 800
CCc1ccccc1NC(=O)C1CCc2sc(C(=O)N(C)C)cc2C1 (configuration not stated) | 738
COCCn1c(SCc2nc(-c3ccc(C)cc3)no2)nc2cc3c(cc2c1=O)OCO3 | 1100
CC(=O)Nc1nc(-c2ccc(F)c(F)c2)cs1 | 766
O=C(CC1CCCC1)N1CCN(CCn2cccn2)CC1 | 560
COc1ccccc1CNC(=O)C1CCN(C(=O)C2Sc3ccccc3NC2=O)CC1 (configuration not stated) | 736
Cc1sc2cc(C(=O)N(C)C)[nH]c2c1CN1CCCCC1 | 606
Cn1cc(CCN2CCC(C(=O)NC3CCCCCC3)CC2)c2cccnc21 | 616
Cc1ccc(CNC(=O)C2CCN(C(=O)c3ncn4c3COC(c3ccc(Cl)cc3)C4)CC2)cc1 (configuration not stated) | 870
Cc1cc2c(cc1S(=O)(=O)N1CCCC1C(=O)N1CCc3ccccc3C1)OCC(=O)N2 (configuration not stated) | 748

SMILES | RP-LC retention time [s]
Cc1csc(-c2ccc(N3CCN(C(=O)c4cccc(C#N)c4)CC3)nc2)n1 | 771
Cc1nc(-c2csc(S(=O)(=O)N3CCCC(C(=O)NCc4ccc(N(C)C)cc4)C3)c2)no1 (configuration not stated) | 686
COc1ccc(NC(=O)c2cccc(N3CCNC(c4ccccc4)C3)n2)cc1 (configuration not stated) | 665
CC1=C(c2ccc(Cl)cc2)S(=O)(=O)N=C1N1CCCN(C(=O)C2CCC2)CC1 | 850
CCCCNC(=O)C(=O)NCC1OCCc2ccccc21 (configuration not stated) | 879
Cc1cccc(C)c1NC(=O)Cn1ncc2c(c1=O)N(CC1CC1)C(=O)CS2 | 784
Cc1cccc(N2CCN(C(=O)c3cc(C)n4nccc4n3)CC2)c1 | 829
c1cnc(N2CCN(Cc3ccc4c(c3)OCO4)CC2)nc1 | 432
CCc1noc(-c2cccn2Cc2ccc(OC)c(F)c2)n1 | 1100
Cc1nn(-c2nc(-c3ccc(F)cc3)cs2)c(C)c1CC(=O)Nc1cccc(Cl)c1 | 772
CC(C)S(=O)(=O)NC[C@H](C)c1ccc(NC(=O)c2cc(F)cc(F)c2)cc1 | 1050
CCN(CC)CCNC(=O)c1ccc(CS(=O)(=O)c2ccc(Br)cc2)o1 | 634
CCC(C)C1Nc2ccc(C(=O)NCCCN3CCOCC3)cc2NC1=O (configuration not stated) | 584
CCOc1ccc(C2=NC3(CCN(C(C)C)CC3)NC(c3cccc(OC)c3O)C2)cc1 (configuration not stated) | 608
COc1ccc(NC(=O)NCCc2cn(C)c3ncccc23)cc1 | 633
CCc1nc(N)n(CC(=O)Nc2ccccc2F)c(=O)c1C | 599
Cc1ccc(-c2nc(C3CCN(C(=O)C4CC(=O)N(c5ccc(C)c(C)c5)C4)CC3)no2)cc1 (configuration not stated) | 1070
O=C(Cn1cccn1)N1CCCC(c2nnc(-c3ccccc3F)s2)C1 (configuration not stated) | 690
Cc1nc(Cn2cccc2C(=O)NCc2ccc(Br)cc2)no1 | 942
CCc1cccc(C)c1NC(=O)CSc1ccc(N2CCCC(C(=O)NC3CC3)C2)nn1 (configuration not stated) | 662
O=C(NCc1nc(-c2cccs2)no1)c1ccc(Br)cc1 | 892
CCc1nc(-c2csc(S(=O)(=O)N3CCCC(C(=O)N(C)c4ccc(C)cc4)C3)c2)no1 (configuration not stated) | 1060
CCOC(=O)N1CCN(S(=O)(=O)c2ccc(C(=O)Nc3nnc(C4CC4)o3)cc2)CC1 | 661

SMILES | RP-LC retention time [s]
COc1ccc(C(=O)N2CCN(c3ccc(-c4nc(C)cs4)cn3)CC2)cc1OC | 736
COCCN1CC2(CCN(S(=O)(=O)c3ccc(C(C)C)cc3)CC2)C1c1ccccc1 (configuration not stated) | 776
CCCc1nc(C(C)(C)O)c(C(=O)OCc2oc(=O)oc2C)n1Cc1ccc(-c2ccccc2-c2nn[nH]n2)cc1 | 832
Cc1c(C(=O)NCC(C)C)cnn1-c1ccc(-c2nc(C(C)C)no2)cn1 | 1050
CCC1Oc2ccc(C)cc2N(CC(=O)NCCCN2CC(C)CC(C)C2)C1=O (configuration not stated) | 708
Cc1ccc2c(C(=O)N3CCN(C4CCCCC4)CC3)cc(NC(=O)C3CCC3)cc2n1 | 556
CC1CCN(S(=O)(=O)c2ccc3nn(CC(=O)OC(C)C)c(=O)n3c2)CC1 | 929
O=C(CCCn1c(=O)c2cccn2c2ccc(F)cc21)N1CCN(C(=O)c2ccco2)CC1 | 745
COc1ccc(OC)c(NC(=O)C2CCN(S(=O)(=O)c3cn(C(C)C)cn3)CC2)c1 | 778
CCCc1nnsc1C(=O)NCCCC(=O)Nc1cccc2cccnc12 | 791
CCc1ccc(Nc2c(C(=O)N3CCC(C)CC3)cnc3nc(C)ccc23)cc1 | 699
O=c1ccc(-c2ccc(F)cc2)nn1CCc1nc(-c2ccc3c(c2)OCO3)no1 | 933
CCc1nc2cc(N3CCC(C(=O)NCc4ccc5c(c4)OCO5)CC3)cnc2nc1CC | 799
O=C(CN1C(=O)C2CCCCN2c2ccc(C(=O)N3CCCC3)cc21)Nc1ccc2c(c1)OCCO2 (configuration not stated) | 779
CCS(=O)(=O)N1CCCc2cc(C(=O)NC(C)C)ccc21 | 746
NC(=O)c1cc(=O)[nH]c2ccc(F)cc12 | 558
COc1cccc(-c2nc(-c3ccc4nnn(C(C)C)c4c3)no2)c1 | 1150
CCOc1ccccc1NC(=O)CN1C(=O)CCc2cc(Br)ccc21 | 1000
Cc1sc(NC(=O)COc2ccc(Cl)cc2)nc1-c1ccc2c(c1)NC(=O)CO2 | 873
Cc1nc2cc(N3CC(C(=O)Nc4ccc(Cl)cc4C)CC3=O)ccc2o1 (configuration not stated) | 781
CCCNC(=O)C1CCCN(c2ccc(SCC(=O)Nc3cccc(C(=O)OCC)c3)nn2)C1 (configuration not stated) | 741
